Results from article doi:10.1101/2023.08.31.555806v1 (biorxiv, 2023).

Target: T1, VraS (GST-VraS) (Staphylococcus aureus, UniProt Q7A2Q0)
T1 sequence (Q7A2Q0 1-347): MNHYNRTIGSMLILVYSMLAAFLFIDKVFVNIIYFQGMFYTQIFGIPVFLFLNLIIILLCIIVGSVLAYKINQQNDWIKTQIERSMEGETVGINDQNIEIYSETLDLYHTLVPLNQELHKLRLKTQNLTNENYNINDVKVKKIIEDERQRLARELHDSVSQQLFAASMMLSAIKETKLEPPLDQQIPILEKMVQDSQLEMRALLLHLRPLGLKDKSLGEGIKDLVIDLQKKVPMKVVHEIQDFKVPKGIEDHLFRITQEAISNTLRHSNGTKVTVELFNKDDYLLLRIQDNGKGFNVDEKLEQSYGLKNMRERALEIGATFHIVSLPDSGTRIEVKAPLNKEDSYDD
Test: ATPase activity, pyruvate kinase/lactate dehydrogenase-coupled NADH fluorescence
Format: biochemical

Work on CCSc1nc2ccc(NC(=O)NC(c3cc(C)ccn3)C3CC3)cc2o1 (stereo not shown) [compound 1, 1-(cyclopropyl(4-methylpyridin-2-yl)methyl)-3-(2-(ethylthio)benzo[d]oxazol-6-yl)urea] yielded an IC50 of 940 ± 290 nM.
